Results reported in ChEMBL document CHEMBL1150051, “Antiviral (RNA) activity of selected Amaryllidaceae isoquinoline constituents and synthesis of related substances” (J Nat Prod, 1992).
≈ marks a conversion by molar mass, not a printed value. Calls of active or inactive are those of the source. The rule behind the calls is not given here.

Legend:
[1] = Therapeutic index, ratio of TC50 for african green monkey Vero cells to IC50 for Sandfly fever sicilian virus; format: cell-based; settings: read-out: TI
[2] = test system: Human immunodeficiency virus 1; experiment: Antiviral activity against HIV1 by cells based assay; format: functional, organism-based
[3] = test system: Japanese encephalitis virus; experiment: Antiviral activity against Japanese encephalitis virus Beijing infected in low viral dose challenge C57BL/6 mouse model assessed as average day of death at 20 mg/kg/day, sc once daily for 7 days administered 1 day before infection measured after 28 days post infection; format: functional; settings: route subcutaneous
[4] = test system: Japanese encephalitis virus; experiment: Antiviral activity against Japanese encephalitis virus Beijing infected in low viral dose challenge C57BL/6 mouse model assessed as average day of death at 10 mg/kg/day, sc once daily for 7 days administered 1 day before infection measured after 28 days post infection; format: functional; settings: route subcutaneous
[5] = test system: Venezuelan equine encephalitis virus; experiment: Antiviral activity against Venezuelan equine encephalitis virus Trinidad donkey infected in african green monkey Vero cells assessed as inhibition of virus-induced cytopathic effect by MTT assay; format: functional, organism-based
[6] = Therapeutic index, ratio of TC50 for african green monkey Vero cells to IC50 for Dengue type 4 virus; format: cell-based; settings: read-out: TI
Mus musculus [7] = experiment: Toxicity in C57BL/6 mouse assessed as mortality at 20 mg/kg/day, sc once daily for 7 days; format: organism-based; parameters: route subcutaneous; settings: in vivo, 168 h
[8] = test system: Japanese encephalitis virus; experiment: Antiviral activity against Japanese encephalitis virus Beijing infected in low viral dose challenge C57BL/6 mouse model assessed as survival rate at 10 mg/kg/day, sc once daily for 7 days administered 1 day before infection measured after 28 days post infection relative to control; format: functional, organism-based
Mus musculus [9] = experiment: Toxicity in C57BL/6 mouse assessed as average day of death at 2 mg/kg/day, sc once daily for 7 days; format: organism-based; parameters: route subcutaneous; settings: in vivo, 168 h
Punta Toro virus = experiment: Antiviral activity against Punta Toro virus Adames infected in african green monkey Vero cells assessed as inhibition of virus-induced cytopathic effect by MTT assay; format: functional, organism-based; settings: Punta Toro virus, Adames, Vero; read-out: IC50
[10] = Therapeutic index, ratio of TC50 for african green monkey Vero cells to IC50 for Japanese encephalitis virus Nakayama; format: cell-based; settings: read-out: TI
Yellow fever virus = experiment: Antiviral activity against Yellow fever virus Ashibi infected in african green monkey Vero cells assessed as inhibition of virus-induced cytopathic effect by MTT assay; format: functional, organism-based; settings: Yellow fever virus, Ashibi, Vero; read-out: IC50
[11] = test system: Japanese encephalitis virus; experiment: Antiviral activity against Japanese encephalitis virus Beijing infected in low viral dose challenge C57BL/6 mouse model assessed as survival rate at 20 mg/kg/day, sc once daily for 7 days administered 1 day before infection measured after 28 days post infection relative to control; format: functional; settings: route subcutaneous
dengue virus type 4 = experiment: Antiviral activity against Dengue virus type 4 infected in african green monkey Vero cells after 6 days by plaque reduction assay; format: functional, organism-based; settings: Dengue virus, Vero, 144 h; read-out: IC50
[12] = Therapeutic index, ratio of TC50 for african green monkey Vero cells to IC50 for Yellow fever virus Ashibi; format: cell-based; settings: read-out: TI
[13] = test system: Japanese encephalitis virus; experiment: Antiviral activity against Japanese encephalitis virus Nakayama infected in african green monkey Vero cells assessed as inhibition of virus-induced cytopathic effect by MTT assay; format: functional, organism-based; settings: Japanese encephalitis virus, Nakayama, Vero; read-out: IC50
Vaccinia virus = experiment: Antiviral activity against Vaccinia virus Lederle vaccine infected in african green monkey Vero cells assessed as inhibition of virus-induced cytopathic effect by MTT assay; format: functional, organism-based; settings: Orthopoxvirus vaccinia
Mus musculus [14] = experiment: Toxicity in C57BL/6 mouse assessed as body weight loss at 40 mg/kg/day, sc once daily for 7 days; format: organism-based; parameters: route subcutaneous; settings: in vivo, 168 h
Rift Valley fever virus = experiment: Antiviral activity against Rift Valley fever virus infected in african green monkey Vero cells after 6 days by plaque reduction assay; format: functional, organism-based; settings: Rift Valley fever virus, Vero, 144 h; read-out: IC50
Mus musculus [15] = experiment: Toxicity in C57BL/6 mouse assessed as mortality at 40 mg/kg/day, sc once daily for 7 days; format: organism-based; parameters: route subcutaneous; settings: in vivo, 168 h
[16] = test system: Japanese encephalitis virus; experiment: Antiviral activity against Japanese encephalitis virus Beijing infected in low viral dose challenge C57BL/6 mouse model assessed as survival rate at 40 mg/kg/day, sc once daily for 7 days administered 1 day before infection measured after 28 days post infection relative to control; format: functional; settings: route subcutaneous
[17] = test system: Sandfly fever Sicilian virus; experiment: Antiviral activity against Sandfly fever sicilian virus infected in african green monkey Vero cells assessed as inhibition of virus-induced cytopathic effect by MTT assay; format: functional, organism-based; settings: sandfly fever Sicilian virus, Vero; read-out: IC50
[18] = Therapeutic index, ratio of TC50 for african green monkey Vero cells to IC50 for Rift valley fever virus; format: cell-based; settings: read-out: TI
Mus musculus [19] = experiment: Toxicity in C57BL/6 mouse assessed as mortality at 10 mg/kg/day, sc once daily for 7 days; format: organism-based; parameters: route subcutaneous; settings: in vivo, 168 h
[20] = Therapeutic index, ratio of TC50 for african green monkey Vero cells to IC50 for Punta toro virus Adames; format: cell-based; settings: read-out: TI
[21] = test system: Japanese encephalitis virus; experiment: Antiviral activity against Japanese encephalitis virus Beijing infected in low viral dose challenge C57BL/6 mouse model assessed as average day of death at 40 mg/kg/day, sc once daily for 7 days administered 1 day before infection measured after 28 days post infection; format: functional; settings: route subcutaneous

Structure (SMILES): O=C1N[C@H]2[C@H](O)[C@H](O)[C@@H](O)[C@H](O)[C@@H]2c2cc3c(cc21)OCO3
- selectivity ratio [1]: 2.7
- Activity [2]: inactive
- Activity [3]: 15 days
- Activity [4]: 13.6 days
- Activity [5]: inactive
- selectivity ratio [6]: 3.7
- Activity (Mus musculus [7]): Non-toxic
- Activity [8]: inactive
- Activity (Mus musculus [9]): 28 days
- IC50 (Punta Toro virus): 0.66 µg/mL (≈ 2.13 µM)
- selectivity ratio [10]: 5.9
- IC50 (Yellow fever virus): 0.4 µg/mL (≈ 1.29 µM)
- Activity [11]: 60%
- IC50 (dengue virus type 4): 0.67 µg/mL (≈ 2.17 µM)
- selectivity ratio [12]: 6.6
- IC50 [13]: 0.48 µg/mL (≈ 1.55 µM)
- Activity (Vaccinia virus): inactive
- Activity (Mus musculus [14]): Toxic
- IC50 (Rift Valley fever virus): 5.1 µg/mL (≈ 16.5 µM)
- Activity (Mus musculus [15]): Non-toxic
- Activity [16]: 80%
- IC50 [17]: 1.7 µg/mL (≈ 5.5 µM)
- selectivity ratio [18]: 4.3
- Activity (Mus musculus [19]): Non-toxic
- selectivity ratio [20]: 4.3
- Activity [21]: 9.5 days
